Three molecules from patent US6602517B2, “Dietary supplements for treating inflammation-related diseases” (Metagenics, Inc., priority 1999, dated 2003) can be followed below.

The structures appear in SMILES notation.

The assay is described as follows: ORAC assay (inhibition of peroxyl-radical quenching of β-phycoerythrin fluorescence). The format is biochemical. To be noted: for AUC/μg mean: pure samples (100% by weight); for ORAC units (U): pure samples, normalized to Trolox on a weight basis. The text has this:
Method: In order to determine the antioxidant capacity of the subject phytonutrients, the ORAC assay (Cao, G et al., Free Rad. Biol. Med. 14: 303-311[…]) was utilized. This simple procedure relies on the fact that peroxyl radicals will quench the fluorescence of β-phycoerythrin (β-PE) The addition of an antioxidant capable of scavenging these radicals is able to inhibit fluorescence quenching. Fluorescence is monitored as a function of time and the extent of quenching and its inhibition can be determined by calculating the area under the curve (AUC).
A typical reaction will contain 1.67×10^−8 M β-PE in phosphate buffer and 3×10^−3 M 2,2′-azobis(2-amidinopropane)dihydochloride (AAPH) as well as test material. The reaction is initiated by the addition of the peroxyl-radical generating reagent AAPH. […] The difference, or net protection, is equal to AUCsample−AUCblank, and represents the antioxidant capacity of the sample. […] Where one ORAC unit (U) is defined as the net protection provided by 1 nmol/ml Trolox (i.e., 1 μM). […] The final results are normalized to Trolox on a weight basis.
units=(AUC/μg)test/(AUC/μg)trolox.
To generate the data set forth in the present example, samples were prepared in acetonitrile, sometimes with the aid of sonication to facilitate dissolution. One to five μl of sample was added to each 3 ml cuvette, the reaction initiated with AAPH and fluorescence monitored until the quenching was complete. The predicted value for the mixtures was calculated by using the following equation: […]

In turn, `COc1cc(/C=C/C(=O)CC(=O)/C=C/c2ccc(O)c(OC)c2)ccc1O` [curcumin] yielded an AUC/μg mean of 15.93 AUC/μg. On to `O=c1c(O)c(-c2ccc(O)c(O)c2)oc2cc(O)cc(O)c12` [quercetin], for which the AUC/μg mean was determined as 14.45 AUC/μg and the “ORAC units (U)” value worked out at 1.62 U. In the same order, the values of `Cc1c(C)c2c(c(C)c1O)CCC(C)(C(=O)O)O2` (centres unmarked) [Trolox, reference compound] are 8.9 AUC/μg and 1.00 U.
